Assay results reported in paper PMC7377239, “Cardiovascular Effects of Polychlorinated Biphenyls and Their Major Metabolites” (Environmental Health Perspectives, 2020).
Structures can show the parent of a compound that is named as a salt. Where two headings read alike, the source gives them in different places.

System: iCell cardiomyocytes (human iPSC-derived cardiomyocytes)
Assay: High-content imaging of cytotoxicity and mitochondrial integrity in iPSC-CMs
Format: cell-based
Conditions: Homo sapiens, Cardiomyocyte; for viability at 0.01 µM / activity at 0.01 µM / viability at 0.1 µM / activity at 0.1 µM / viability at 1 µM / activity at 1 µM / viability at 10 µM / activity at 10 µM / viability at 100 µM / activity at 100 µM: 0.00 µM = 100.00; for viability at 0.1 µM / activity at 0.1 µM: 0.10 µM
Outline: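 Readouts from high-content images were normalized to vehicle controls containing 0.5% vol/vol DMSO. They were fit to a four-parameter logistic model in R. Points of departure were set using a cutoff of one standard deviation across vehicle control means. Where no concentration–response was seen, the top tested concentration of 100μM was assigned as the no observable adverse effect level.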

[1] = 1.5 h, 90min, read-out: cm.cam.90min
[2] = 1.5 h, 90min, read-out: cm.mii.90min
[3] = 1.5 h, 90min, read-out: cm.mito.90min
[4] = 1.5 h, 90min, read-out: cm.tc.90min
[5] = 24 h, 24hrs, read-out: cm.cam.24hrs
[6] = 24 h, 24hrs, read-out: cm.mii.24hrs
[7] = 24 h, 24hrs, read-out: cm.mito.24hrs
[8] = 24 h, 24hrs, read-out: cm.tc.24hrs

Structure (SMILES): O=S(=O)(O)Oc1cc(Cl)c(-c2cc(Cl)ccc2Cl)cc1Cl [4-yl PCB 52 sulfate]
- viability at 0.01 µM [1]: 106%
- activity at 0.01 µM [2]: 103%
- activity at 0.01 µM [3]: 106%
- viability at 0.01 µM [4]: 106%
- viability at 0.1 µM [1]: 93.3%
- activity at 0.1 µM [2]: 129%
- activity at 0.1 µM [3]: 92.9%
- viability at 0.1 µM [4]: 92.8%
- viability at 1 µM [1]: 98.7%
- activity at 1 µM [2]: 130%
- activity at 1 µM [3]: 98.5%
- viability at 1 µM [4]: 98.4%
- viability at 10 µM [1]: 97.1%
- activity at 10 µM [2]: 109%
- activity at 10 µM [3]: 96.8%
- viability at 10 µM [4]: 97.1%
- viability at 100 µM [1]: 0.07%
- activity at 100 µM [2]: 31.5%
- activity at 100 µM [3]: 0.16%
- viability at 100 µM [4]: 0.16%
- minimal effective concentration (1.5 h, 90min, read-out: cm.cam.90min POD): 10.8 µM
- minimal effective concentration (1.5 h, 90min, read-out: cm.mii.90min POD): 41.2 µM
- minimal effective concentration (1.5 h, 90min, read-out: cm.mito.90min POD): 10.6 µM
- minimal effective concentration (1.5 h, 90min, read-out: cm.tc.90min POD): 10.8 µM
- viability at 0.01 µM [5]: 95.3%
- activity at 0.01 µM [6]: 98.6%
- activity at 0.01 µM [7]: 93.3%
- viability at 0.01 µM [8]: 96.5%
- viability at 0.1 µM [5]: 103%
- activity at 0.1 µM [6]: 122%
- activity at 0.1 µM [7]: 104%
- viability at 0.1 µM [8]: 104%
- viability at 1 µM [5]: 104%
- activity at 1 µM [6]: 111%
- activity at 1 µM [7]: 104%
- viability at 1 µM [8]: 104%
- viability at 10 µM [5]: 91.5%
- activity at 10 µM [6]: 107%
- activity at 10 µM [7]: 89.6%
- viability at 10 µM [8]: 91.7%
- viability at 100 µM [5]: 1.67%
- activity at 100 µM [6]: 12.2%
- activity at 100 µM [7]: 0.34%
- viability at 100 µM [8]: 3.82%
- minimal effective concentration (24 h, read-out: cm.cam.24hrs POD): 8.2 µM
- minimal effective concentration (24 h, read-out: cm.mii.24hrs POD): 44.6 µM
- minimal effective concentration (24 h, read-out: cm.mito.24hrs POD): 8.28 µM
- minimal effective concentration (24 h, read-out: cm.tc.24hrs POD): 8.44 µM

Structure (SMILES): O=S(=O)(O)Oc1cc(-c2ccccc2)ccc1Cl [3-PCB 3 sulfate]
- minimal effective concentration (1.5 h, cardiomyocytes (cm), cam, 90 min, read-out: POD cm.cam.90min): 100 µM
- minimal effective concentration (1.5 h, cardiomyocytes (cm), mii, 90 min, read-out: POD cm.mii.90min): 100 µM
- minimal effective concentration (1.5 h, cardiomyocytes (cm), mito, 90 min, read-out: POD cm.mito.90min): 100 µM
- minimal effective concentration (1.5 h, cardiomyocytes (cm), tc, 90 min, read-out: POD cm.tc.90min): 100 µM
- minimal effective concentration (24 h, cardiomyocytes (cm), cam, 24 hrs, read-out: POD cm.cam.24hrs): 100 µM
- minimal effective concentration (24 h, cardiomyocytes (cm), mii, 24 hrs, read-out: POD cm.mii.24hrs): 22.8 µM
- minimal effective concentration (24 h, cardiomyocytes (cm), mito, 24 hrs, read-out: POD cm.mito.24hrs): 100 µM
- minimal effective concentration (24 h, cardiomyocytes (cm), tc, 24 hrs, read-out: POD cm.tc.24hrs): 100 µM
